According to US4514413A, “Gastric acid secretion inhibiting N-(imidazol-1-ylalkyl)thiourea derivatives” (BASF Aktiengesellschaft, priority 1982, dated 1985):

Legend:
[1] = target: T1, histamine H2 receptor (Rattus norvegicus, UniProt P25102); assay: Inhibition of the dimaprit-induced lowering of the blood pressure (histamine H2 receptor-blocking action); assay type: in vivo, male Sprague-Dawley rats; settings: for R.A. (relative activity), inhibition of the dimaprit-induced lowering of the blood pressure / inhibition of dimaprit-induced lowering of the blood pressure (in words): rat
T1 construct: In male Sprague-Dawley rats (weight 210-310 g) which have been anesthetized with urethane; from tissue; host or cells: whole animal in vivo: anesthetized male Sprague-Dawley rats
T1 sequence (P25102 whole entry): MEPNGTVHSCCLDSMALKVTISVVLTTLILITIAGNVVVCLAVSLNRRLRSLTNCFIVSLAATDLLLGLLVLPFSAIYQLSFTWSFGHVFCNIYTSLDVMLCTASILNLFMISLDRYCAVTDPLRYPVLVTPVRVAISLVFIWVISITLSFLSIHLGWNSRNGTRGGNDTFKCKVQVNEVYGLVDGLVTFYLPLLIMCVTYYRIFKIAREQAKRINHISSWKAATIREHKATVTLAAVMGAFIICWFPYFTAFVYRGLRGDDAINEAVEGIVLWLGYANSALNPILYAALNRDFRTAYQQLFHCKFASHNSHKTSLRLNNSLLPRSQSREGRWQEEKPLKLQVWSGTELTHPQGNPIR
Protocol: The substances tested were administered intravenously 5 minutes before the dimaprit injection. The ED 50% is determined as the dose which inhibits the dimaprit-induced lowering of the blood pressure by 50% (Table 1).

[2] = tested on: secretion of gastric acid; assay: Inhibition of the gastric secretion in the rat (pH at the surface of the gastric mucous membrane); assay type: in vivo, female Sprague-Dawley rats; settings: for R.A. (relative activity), inhibition of the gastric secretion: cimetidine = 1.00, subcutaneous administration; for ED 0.75 (dose which increases the pH by 0.75 on average compared with untreated control animals): subcutaneous administration, 1 hour pretreatment, 48 h fasted
Protocol: Inhibition of the secretion of gastric acid results in an increase in the pH of the gastric mucus membrane. This is investigated on groups of 5 conscious female Sprague-Dawley rats weighing 160-180 g. The animals receive no food for 48 hours (water ad libitum), and are pretreated subcutaneously with various doses of the test substances. […] The dose which increases the pH by 0.75 on average compared with untreated control animals is determined, as the ED 0.75, from the linear regression between the logarithms of the applied doses and the increase in the pH (Table 2).

[3] = cimetidine = 1.00, urethane anesthesia, intravenous administration
[4] = urethane anesthesia, intravenous administration

CCc1nccn1CCCNC(=S)NCCSCc1ccc(CN(C)C)o1 [Example No. 3, N-[3-(2-ethylimidazol-1-yl)-propyl]-N'-{2-[[5-(N,N-dimethylaminomethyl)-furan-2-yl]-methylthio]-ethyl}-thiourea dioxalate]
R.A. (relative activity), inhibition of the dimaprit-induced lowering of the blood pressure [1, 3]: 12.94

Cc1nc(C)n(CCCNC(=S)NCCSCc2ccc(CN(C)C)o2)c1C [Example No. 8, N[3-(2,4,5-trimethylimidazol-1-yl)-propyl]-N'{2-[[5-(N,Ndimethylamino-methyl)-furan-2-yl]-methylthio]-ethyl}-thiourea]
R.A. (relative activity), inhibition of the dimaprit-induced lowering of the blood pressure [1, 3]: 26.19

CCCc1nccn1CCCNC(=S)NCCSCc1ccc(CN(C)C)o1 [Example No. 4]
R.A. (relative activity), inhibition of the dimaprit-induced lowering of the blood pressure [1, 3]: 10.00

CN/C(=N/CCSCc1nc[nH]c1C)NC#N [Cimetidine, reference compound]
R.A. (relative activity), inhibition of the dimaprit-induced lowering of the blood pressure [1, 3]: 1.00 | inhibition of dimaprit-induced lowering of the blood pressure (in words) [1, 4]: specific and dose-dependent inhibition | R.A. (relative activity), inhibition of the gastric secretion [2]: 1.00 | ED 0.75 (dose which increases the pH by 0.75 on average compared with untreated control animals) [2]: 0.45 mg/kg

CNC(=C[N+](=O)[O-])NCCSCc1ccc(CN(C)C)o1 [Ranitidine, reference compound]
R.A. (relative activity), inhibition of the dimaprit-induced lowering of the blood pressure ([1]; in vivo, iv): 10.48 | inhibition of dimaprit-induced lowering of the blood pressure (in words) [1, 4]: specific and dose-dependent inhibition | R.A. (relative activity), inhibition of the gastric secretion [2]: 5.23 | ED 0.75 (dose which increases the pH by 0.75 on average compared with untreated control animals) ([2]; in mg/kg): 0.086

CC(C)c1nccn1CCCNC(=S)NCCSCc1ccc(CN(C)C)o1 [Example No. 2, N-[3-(2-isopropylimidazol-1-yl)-propyl]-N'-{2-[[5-(N,N-dimethylaminomethyl)-furan-2-yl]-methylthio]-ethyl}-thiourea]
R.A. (relative activity), inhibition of the dimaprit-induced lowering of the blood pressure [1, 3]: 22.00

Cc1nccn1CCCNC(=S)NCCSCc1ccc(CN(C)C)o1.O=C(O)C(=O)O.O=C(O)C(=O)O [Example No. 1, N-[3-(2-methylimidazol-1-yl)-propyl]-N'-{2-[[5-(N,N-dimethylaminomethyl)-furan-2-yl]-methylthio]-ethyl}-thiourea dioxalate]
R.A. (relative activity), inhibition of the dimaprit-induced lowering of the blood pressure ([1]; in vivo, iv): 23.91 | R.A. (relative activity), inhibition of the gastric secretion [2]: 8.65 | ED 0.75 (dose which increases the pH by 0.75 on average compared with untreated control animals) ([2]; in mg/kg): 0.052 | times more effective than cimetidine ([2]; vs cimetidine, inhibition of gastric acid secretion, subcutaneous): 8.7 times | times more effective than ranitidine ([2]; vs ranitidine, inhibition of gastric acid secretion, subcutaneous): 1.7 times

CCc1ncc(C)n1CCCNC(=S)NCCSCc1ccc(CN(C)C)o1 [Example No. 9]
R.A. (relative activity), inhibition of the dimaprit-induced lowering of the blood pressure [1, 3]: 10.00

CN(C)CCCSC(=N)N [dimaprit, S-[3-(N,N-dimethylamino)-propyl]-isothiourea, reference compound]
average lowering of the blood pressure ([1]; dimaprit 3.16 mg intravenously, initial pressures 100±1.1 mm Hg, N=70): 27±0.7 mm Hg
